Test system: PAF (platelet activating factor) lethality
Experiment: PAF lethality assay procedure
Assay type: in vivo, mice (CD1 males)
Conditions: Mus musculus, po, positive control, mice treated orally 45 minutes before i.v. PAF injection, approximate
Experimental: To evaluate the compounds of the formula (I) in vivo, they are tested by the so-called PAF lethality assay procedure:
Mice: CD1 males, all approximately the same weight (approximately 26 grams), 12 per group.
Vehicle for oral drug dosing: EES (5% ethanol, 5% emulphor, 90% saline). Stored at room temperature.
Drugs: For routine screening at 50 mg/kg, 20 mg drug is dissolved in 4 ml EES, using sonication in a sonicator bath or grinding in a Ten Broeck grinder to dissolve drug if necessary. If solubility is still a problem, the drug is used as a suspension.
Vehicle for i.v. Injection: Saline with 2.5 mg/ml Bovine Serum Albumin (BSA, Sigma #A4378) and 0.05 mg/ml Propranolol (Sigma #P0884). Prepared fresh daily and kept at room temperature.
Platelet Activating Factor (PAF): A 10 microm stock solution is prepared by dissolving 1 mg PAF (Calbiochem #429460) in 0.18 ml ethanol. This is stored at -20° C. and is diluted in vehicle (see above) the day of use. The concentration of PAF used is calibrated so that when injected at 0.1 ml/10 grams body weight, it will kill approximately 80% of untreated controls. This is usually about […] (a 1 to 2034 dilution from stock). […]
45 minutes before PAF injection, mice are treated orally with drug using 0.1 ml/10 grams body weight. […] Results are expressed as percent mortality as compared to controls. […]

With `O=C1CCN(c2ccccc2)N1` [Phenidone] the ED50 was ~25 mg/kg.
